One assay concerns Cyclooxygenase. Description: ARBC whole cell cyclooxygenase assay (PGF2α formation in RBL-1 cells). To be noted: A23187 (5 μM) stimulated, PGF2α formation by RIA. Type of assay: cell-based, rat. The procedure:
(§1) A description of each procedure follows. ARBL/ARBC Whole Cell 5-Lipoxygenase and Cyclooxygenase Assays The rat basophilic leukemia cell line (RBL-1) was obtained from the American Type Culture Collection (Rockville, Md.). Radioimmunoassay (RIA) kits of LTB4 and PGF2α were obtained from Amersham (Arlington Heights, Ill.) and Seragen (Boston, Mass.), respectively. All tissue culture media were obtained from GIBCO (Grand Island, N.Y.). RBL-1 cells are grown in suspension culture in Eagle's minimum essential medium supplemented with 12% fetal bovine serum at 37° C. in an incubator supplied with air-5% carbon dioxide. Cells are harvested by centrifugation. They are washed with cold phosphate buffered saline pH 7.4 (PBS; NaCl, 7.1 g; NaHPO, 1.15 g; KHPO, 0.2 g; and KCl, 0.2 g/l). Cells are finally suspended in PBS containing 1.0 mM calcium at a density of […] cells/ml. Cells are incubated with and without test agent (in DMSO) (1% DMSO is without effect on arachidonic acid metabolism) for ten minutes at room temperature. Calcium ionophore A23187 (5 μM) is added and cells are incubated for seven minutes at 37° C. The reaction is stopped by chilling the tubes on ice for ten minutes. Cells are separated by centrifugation and the supernatant is stored at […]. Aliquots (100 μL) are analyzed for LTB4 and PGF2α using radioimmunoassay kits as provided by the supplier. Biochemical data obtained from this whole cell assay may be shown as IC50 s which are calculated as the amount of test compound causing 50% inhibition of LTB4 or PGF2α formation. The following Table exemplifies the data for the present invention.

The target in another assay is T1, 5-Lipoxygenase (Rattus norvegicus, UniProt P12527).
T1 construct: host or cells: RBL-1 (rat basophilic leukemia)
T1 sequence (P12527 1-673): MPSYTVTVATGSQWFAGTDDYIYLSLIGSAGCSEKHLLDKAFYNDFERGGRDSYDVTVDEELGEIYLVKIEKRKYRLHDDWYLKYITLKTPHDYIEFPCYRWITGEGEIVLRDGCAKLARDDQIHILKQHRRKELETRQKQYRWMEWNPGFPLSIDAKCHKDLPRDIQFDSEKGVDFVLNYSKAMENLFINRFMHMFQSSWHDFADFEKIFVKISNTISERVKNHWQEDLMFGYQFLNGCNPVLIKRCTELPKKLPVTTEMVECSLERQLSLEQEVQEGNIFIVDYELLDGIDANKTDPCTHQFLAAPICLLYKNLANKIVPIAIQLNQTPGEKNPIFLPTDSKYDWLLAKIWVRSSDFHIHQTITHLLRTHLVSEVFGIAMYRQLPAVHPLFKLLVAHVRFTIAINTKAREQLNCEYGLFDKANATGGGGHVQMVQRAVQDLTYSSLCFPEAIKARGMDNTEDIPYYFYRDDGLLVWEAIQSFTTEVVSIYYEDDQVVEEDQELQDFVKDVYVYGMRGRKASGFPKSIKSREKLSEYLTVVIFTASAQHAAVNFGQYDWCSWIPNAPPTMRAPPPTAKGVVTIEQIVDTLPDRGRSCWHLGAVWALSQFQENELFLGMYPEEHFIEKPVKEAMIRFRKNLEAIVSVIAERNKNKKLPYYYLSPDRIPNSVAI
Description: ARBL whole cell 5-lipoxygenase assay (LTB4 formation in RBL-1 cells). To be noted: A23187 (5 μM) stimulated, LTB4 formation by RIA, read-out: % Inhibition at 10 μM Conc, ARBL. Type of assay: cell-based. The procedure: as §1

This is an account of results in patent US5270319A, “5-hydroxy-2-pyrimidinylmethylene derivatives useful as antiinflammatory agents” (Warner-Lambert Company, priority 1992, dated 1993).

Each structure is given as a SMILES string.

By % Inhibition is commonly meant the percentage by which the read-out fell short of the control. Broadly, the inhibition is the change of the read-out against control, counted positive when it falls.

As for `CC(C)(C)c1nc(C=C2CCOC2=O)nc(C(C)(C)C)c1O` [Example 16], the “% Inhibition at 10 μM Conc, ARBC” value in the assay with Cyclooxygenase worked out at 93%. Moreover, on 5-Lipoxygenase, the inhibition at 10 µM worked out at 100%.
For `CC(C)(C)c1nc(C=C2SC(=N)NC2=O)nc(C(C)(C)C)c1O` [Example 7, 5-[[4,6-Bis-(1,1-dimethylethyl]-5-hydroxy-2-pyrimidinyl]methylene]-2-imino-4-thiazolidinone], in that order: 56% and 32%.
For `CC(C)(C)c1nc(C=C2SC(=O)NC2=O)nc(C(C)(C)C)c1O` [Example 8], in that order: 68% and 60%.
For `CON1CCC(=Cc2nc(C(C)(C)C)c(O)c(C(C)(C)C)n2)C1=O` [Example 15, 3-[[4,6-Bis-(1,1-dimethylethyl)-5-hydroxy-2-pyrimidinyl]methylene]-N-methoxy-pyrrolidin-2-one], in that order: 88% and 46%.
For `CC(C)(C)c1nc(C=C2SC(=S)NC2=O)nc(C(C)(C)C)c1O` [Example 6, 5-[[4,6-Bis-(1,1-dimethylethyl)-5-hydroxy-2-pyrimidinyl]methylene]-2-thioxo-4-thiazolidinone], the “% Inhibition at 10 μM Conc, ARBC” value in the assay with Cyclooxygenase was 81%. For the same compound, the inhibition at 10 µM at 5-Lipoxygenase is 91%.
